Laboratory results published in a compilation of properties of binary mixtures (doi:10.1007/s11426-012-4655-1).

Assay: xn = mol fraction of the nth substance listed
Details: 101 kPa

CCCCCCCCn1cc[n+](C)c1.F[B-](F)(F)F + CCCCCCCCn1cc[n+](C)c1.[Cl-]
Details	electrical conductivity [S/m]	viscosity [mPa·s]
303 K, x2 = 0.2	0.0443	–
303 K, x2 = 0.4	0.0225	–
303 K, x2 = 0.6	0.011	–
303.15 K, x2 = 0.2	–	530
303.15 K, x2 = 0.6	–	2399
308 K, x2 = 0	0.107	–
308 K, x2 = 0.2	0.0605	–
308 K, x2 = 0.4	0.0317	–
308 K, x2 = 0.6	0.0163	–
308 K, x2 = 0.8	0.0085	–
308.15 K, x2 = 0	–	194
308.15 K, x2 = 0.2	–	380
308.15 K, x2 = 0.4	–	760
308.15 K, x2 = 0.6	–	1565
313 K, x2 = 0	0.137	–
313 K, x2 = 0.2	0.0801	–
313 K, x2 = 0.4	0.0438	–
313 K, x2 = 0.8	0.0128	–
313.15 K, x2 = 0	–	149
313.15 K, x2 = 0.2	–	279
313.15 K, x2 = 0.4	–	530
313.15 K, x2 = 0.6	–	1065
313.15 K, x2 = 0.8	–	2245
318 K, x2 = 0.4	0.0595	–
318 K, x2 = 0.8	0.0186	–
318.15 K, x2 = 0	–	116
318.15 K, x2 = 0.2	–	211
318.15 K, x2 = 0.4	–	390
318.15 K, x2 = 0.6	–	740
323 K, x2 = 0	0.215	–
323 K, x2 = 0.2	0.136	–
323 K, x2 = 0.4	0.0791	–
323 K, x2 = 0.8	0.0264	–
323.15 K, x2 = 0	–	92
323.15 K, x2 = 0.2	–	162
323.15 K, x2 = 0.4	–	287
323.15 K, x2 = 0.6	–	520
323.15 K, x2 = 0.8	–	1015
328 K, x2 = 0	0.263	–
328 K, x2 = 0.4	0.102	–
328 K, x2 = 0.6	0.0607	–
328 K, x2 = 0.8	0.0366	–
328.15 K, x2 = 0	–	74
328.15 K, x2 = 0.2	–	127
328.15 K, x2 = 0.4	–	216
328.15 K, x2 = 0.6	–	370
328.15 K, x2 = 0.8	–	710
333 K, x2 = 0.2	0.211	–
333 K, x2 = 0.4	0.13	–
333 K, x2 = 0.6	0.0797	–
333 K, x2 = 0.8	0.0514	–
333.15 K, x2 = 0.2	–	100
333.15 K, x2 = 0.4	–	166
333.15 K, x2 = 0.6	–	279
333.15 K, x2 = 0.8	–	500

CCCCCC[n+]1ccn(C)c1.F[P-](F)(F)(F)(F)F + CCCCCC[n+]1ccn(C)c1.[Cl-]
Details	electrical conductivity [S/m]	viscosity [mPa·s]
303 K, x2 = 0	0.0747	–
303 K, x2 = 0.2	0.0399	–
303 K, x2 = 0.4	0.0205	–
303 K, x2 = 0.6	0.0104	–
303 K, x2 = 0.8	0.0054	–
303.15 K, x2 = 0	–	500
308 K, x2 = 0	0.0993	–
308 K, x2 = 0.2	0.0556	–
308 K, x2 = 0.6	0.0158	–
308 K, x2 = 0.8	0.0086	–
308.15 K, x2 = 0.2	–	680
308.15 K, x2 = 0.4	–	1238
313 K, x2 = 0.2	0.0751	–
313 K, x2 = 0.6	0.0235	–
313 K, x2 = 0.8	0.0133	–
313.15 K, x2 = 0	–	273
313.15 K, x2 = 0.2	–	490
313.15 K, x2 = 0.4	–	850
313.15 K, x2 = 0.6	–	1501
318 K, x2 = 0	0.166	–
318 K, x2 = 0.2	0.1	–
318 K, x2 = 0.4	0.0584	–
318 K, x2 = 0.8	0.0199	–
318.15 K, x2 = 0	–	208
318.15 K, x2 = 0.2	–	360
318.15 K, x2 = 0.6	–	1014
323 K, x2 = 0	0.21	–
323 K, x2 = 0.2	0.131	–
323 K, x2 = 0.4	0.0793	–
323 K, x2 = 0.6	0.0476	–
323 K, x2 = 0.8	0.0291	–
323.15 K, x2 = 0	–	162
323.15 K, x2 = 0.2	–	268
323.15 K, x2 = 0.4	–	430
323.15 K, x2 = 0.8	–	1154
328 K, x2 = 0.2	0.166	–
328 K, x2 = 0.4	0.105	–
328 K, x2 = 0.6	0.0648	–
328.15 K, x2 = 0	–	128
328.15 K, x2 = 0.4	–	322
328.15 K, x2 = 0.6	–	500
328.15 K, x2 = 0.8	–	790
333 K, x2 = 0	0.319	–
333 K, x2 = 0.2	0.21	–
333 K, x2 = 0.4	0.137	–
333 K, x2 = 0.6	0.0875	–
333 K, x2 = 0.8	0.0582	–
333.15 K, x2 = 0	–	102
333.15 K, x2 = 0.2	–	159
333.15 K, x2 = 0.4	–	242
333.15 K, x2 = 0.6	–	370
333.15 K, x2 = 0.8	–	550

CCCCCCCCn1cc[n+](C)c1.[Cl-] + CCCCCCCCn1cc[n+](C)c1.F[B-](F)(F)F
x1 = 1
Details	electrical conductivity [S/m]	viscosity [mPa·s]
303 K	0.0021	–
308 K	0.0035	–
318 K	0.0086	–
323 K	0.0129	–
323.15 K	–	2043
328 K	0.0187	–
333 K	0.0266	–
333.15 K	–	930
